# Measurements taken from patent publication US20210260010A1, “COMPOSITIONS AND METHODS FOR THE REDUCTION OR TREATMENT OF INFLAMMATION” (AXCELLA HEALTH INC., priority 2018, published 2021).
# Key:
# Format in all cases: cell-based
# MCP-1 = MCP-1 chemokine secretion by TNFα-stimulated primary human hepatic stellate cells (ELISA); details: for Fold Change MCP1 Secretion Normalized Per Cell, Mean: donor 3 hepatic stellate cells, TNFα, fold change from plasma amino acid background
# Protocol: Primary human hepatic stellate cells were obtained from Samsara Sciences and grown in Complete HSC Medium to […] confluence in T75 or T150 flasks below passage 10 were seeded into 96-well plates and incubated for 6 hours at 37° C., 5% CO2 in a humidified incubator. After 6 hours, plates were removed from the incubator washed with DPBS and pretreated (±single amino acid dropout, ±supplemental amino acid dose; see experiment for medium composition) overnight, ˜14-15 hours. After overnight pretreatment, the medium was removed from the cells, and the same pretreatment medium, now supplemented with 3 ng/mL TNFα was applied. Plates were incubated for 12 hours at 37° C., 5% CO2. After 12 hour stimulus with TNFα, supernatant was removed and frozen at −80° C. in two separate aliquots. Plates were washed and incubated with CCK-8 viability reagent (Dojindo) for 1 hour. Viability was measured on the Synergy plate reader. Immediately, the medium was removed and the plates were fixed for immunofluorescence staining.
# Human CCL2/MCP1 and Human IL-6 were measured by ELISA (Human […] DuoSet ELISA, R&D Systems; Human IL-6 DuoSet ELISA, R&D Systems) at ⅕ and 1/20 dilution in 1× Reagent Diluent (Reagent Ancillary Kit 2, R&D Systems). Data were normalized to the specific per well cell density determined by Hoechst stained nuclei count.
# Tables 35-38 show per-cell normalized MCP-1 chemokine secretion in primary human hepatic stellate cells from two donors as a fold change from the plasma amino acid background. Statistical significance calculated by one-way ANOVA with Dunnett's multiple comparison test within each treatment group.
# IL-6 = test: LPS-induced IL-6 secretion in primary human monocyte-derived macrophages (ELISA); details: for IL-6 Measurements Mean: LPS 0.15 ng/mL, baseline subtracted; for LPS-induced IL-6 secretion: macrophages, 0.15 ng/mL LPS
# Protocol: (§1) Unpurified buffy coats (Research Blood Components) were carefully poured into 50 mL centrifuge tubes and diluted with room temperature Dulbecco's Phosphate Buffered Saline (dPBS) with Calcium and Magnesium (Gibco). Diluted buffy coats were further divided into four total 50 mL centrifuge tubes at 20 mL per tube. Lymphocyte Separation Medium (Corning) was carefully pipetted to the bottom of each centrifuge tube. Mixtures were centrifuged at 850× g for 32 minutes at 20° C. with 0 deceleration and acceleration.
# (§2) The PBMC layer was separated from other components after centrifugation and added to new 50 mL centrifuge tube containing 25 mL dPBS. Total volume was brought up to 50 mL with dPBS and centrifuged at 600×g for 10 minutes at 20° C. with acceleration of 9, deceleration of 5. Supernatant was carefully removed from cell pellets. The cell pellets were resuspended using 10 mL dPBS. Total volume was then brought up to 50 mL using dPBS and centrifuged at 450×g for 5 min at 20° C. with acceleration of 9, deceleration of 9. The supernatant removal and cell pellet resuspension was repeated again.
# (§3) The supernatant was then carefully removed from cell pellets. Cell pellets were resuspended in 10 mL dPBS without calcium or magnesium and filtered through a 70 uM cell strainer. The total PBMC number was determined using a Cellometer K2 automated cell counter. A total of 5E6 cells were saved for flow cytometric analysis. Remaining cells were centrifuged at 490×g for 5 minutes at 20° C. with acceleration of 9, deceleration of 9.
# (§4) CD14+ cells were selected using EasySep™ Human CD14 Positive Selection Kit II ([…] Technologies). Cells were resuspended in cold EasySep™ Buffer ([…] Technologies) at 1×10^8 cells/mL. A total of 100 uL/mL EasySep™ Human CD14 Positive Selection Cocktail II was added to the cell suspension, mixed, and incubated at room temperature for 10 minutes. A total of 100 uL/mL RapidSpheres were added to the mixture and incubated at room temperature for 3 minutes after mixing, then RoboSep buffer was added to bring up the total volume to 10 mL. The mixture in a 15 mL tube was placed in magnet and incubated at room temperature for 3 minutes. Supernatant was discarded and 10 mL fresh EasySep™ buffer was added to 15 mL tube. The addition of RoboSep buffer, mixing, and discarding of supernatant was repeated two more times.
# (§5) Negative and positive fractions were centrifuged at 490×g for 5 minutes at 20° C. with acceleration of 9, deceleration of 9, and resuspended in DMEM (Gibco) and 10% Heat Inactivated Fetal Bovine Serum (Atlanta Bio) and Penicillin/Streptomycin. Cells were counted and centrifuged again at 490× g for 5 minutes at 20° C. with acceleration of 9, deceleration of 9. After centrifugation, cell were resuspended in DMEM (Gibco) and 10% Heat Inactivated Fetal Bovine Serum (Atlanta Bio) and Penicillin/Streptomycin containing 500 U/mL […] and plated at 1-2×10^6 cells/mL on 10 cm tissue culture plates. Cells were kept in 37° C., 5% CO2 in between feedings/harvest.
# (§6) Cells were fed every 3-4 days by removing media and unattached cells, centrifuging at 490× g for 5 minutes at 20° C. with acceleration of 9, deceleration of 9, and resuspending in fresh DMEM (Gibco) and 10% Heat Inactivated Fetal Bovine Serum (Atlanta Bio) and Penicillin/Streptomycin containing GM-CSF. Resuspended cells were seeded back onto 10 cm tissue culture plates and incubated at 37° C., 5% CO2. Differentiated macrophages were used for subsequent experiments.
# (§7) Primary human PMBC derived macrophages were seeded on day 0 at 3.0E4 cells per well in 96-well microplates (ThermoFisher) in Dulbecco's Modified Eagle Medium (DMEM) (Gibco) supplemented with penicillin-streptomycin (Hyclone) and 10% heat inactivated fetal bovine serum (HI-FBS) (Atlanta Bio) and incubated overnight at 37° C., 5% CO2. On day 1, cells were washed once with 150 uL per well DPBS (Gibco) and treated with 75 uL of: • a. […]
# TNFα = test: LPS-induced TNFα secretion in primary human monocyte-derived macrophages (ELISA); parameters: TNFa Measurements Mean: unit not given here; details: for TNFa Measurements Mean: LPS 0.15 ng/mL; for TNFa Measurements Mean / Donor 2 TNFa Measurements Mean / Donor 3 TNFa Measurements Mean: baseline subtracted; for LPS-induced TNFα secretion: macrophages, 0.15 ng/mL LPS
# Protocol: as §1, §2, §3, §4, §5, §6, §7
# [1] = Donor 1, Conc. 66 μM (baseline)
# [2] = Donor 2, Conc. 66 μM (baseline)
structure (smiles),measurement,setting,value
"CC(=O)N[C@@H](CS)C(=O)O [NAC, N-acetylcysteine]","Fold Change MCP1 Secretion Normalized Per Cell, Mean",MCP-1; Conc. 5 X,0.8492
same,"Fold Change MCP1 Secretion Normalized Per Cell, Mean",MCP-1; Conc. 10 X,0.6565
same,"Fold Change MCP1 Secretion Normalized Per Cell, Mean",MCP-1; Conc. 20 X,0.5413
same,"Fold Change MCP1 Secretion Normalized Per Cell, Mean",MCP-1; Conc. 40 X,0.4485
same,Fold Change MCP1 Secretion Normalized Per Cell,"MCP-1; donor 3, Conc. 1000 μM",0.8492
same,Fold Change MCP1 Secretion Normalized Per Cell,"MCP-1; donor 3, Conc. 2500 μM",0.6565
same,Fold Change MCP1 Secretion Normalized Per Cell,"MCP-1; donor 3, Conc. 5000 μM",0.5413
same,Fold Change MCP1 Secretion Normalized Per Cell,"MCP-1; donor 3, Conc. 10000 μM",0.4485
same,Fold Change MCP1 Secretion Normalized Per Cell,"MCP-1; donor 4, Conc. 5 X",0.6437
same,Fold Change MCP1 Secretion Normalized Per Cell,"MCP-1; donor 4, Conc. 10 X",0.8033
same,Fold Change MCP1 Secretion Normalized Per Cell,"MCP-1; donor 4, Conc. 20 X",0.6728
same,Fold Change MCP1 Secretion Normalized Per Cell,"MCP-1; donor 4, Conc. 40 X",0.5011
same,"MCP-1 chemokine secretion, per-cell normalized, fold change from plasma amino acid background","MCP-1; primary human hepatic stellate cells, two donors, TNFα 3 ng/mL, 12 hours",significantly reduced
same,IL-6 Measurements Mean,"IL-6; Donor 1, Conc. 0 X (baseline)",0
same,IL-6 Measurements Mean,"IL-6; Donor 1, Conc. 5 X",308.1772
same,IL-6 Measurements Mean,"IL-6; Donor 1, Conc. 10 X",−121.142
same,IL-6 Measurements Mean,"IL-6; Donor 1, Conc. 20 X",−553.802
same,IL-6 Measurements Mean,"IL-6; Donor 1, Conc. 40 X",−914.194
same,IL-6 Measurements Mean,"IL-6; Donor 2, Conc. 0 X (baseline)",−2.4E−15
same,IL-6 Measurements Mean,"IL-6; Donor 2, Conc. 5 X",−0.7946
same,IL-6 Measurements Mean,"IL-6; Donor 2, Conc. 10 X",−9.751
same,IL-6 Measurements Mean,"IL-6; Donor 2, Conc. 20 X",−24.9999
same,IL-6 Measurements Mean,"IL-6; Donor 2, Conc. 40 X",−33.7585
same,IL-6 Measurements Mean,"IL-6; Donor 3, Conc. 0 X (baseline)",−9.5E−15
same,IL-6 Measurements Mean,"IL-6; Donor 3, Conc. 5 X",−70.3269
same,IL-6 Measurements Mean,"IL-6; Donor 3, Conc. 10 X",−103.586
same,IL-6 Measurements Mean,"IL-6; Donor 3, Conc. 20 X",−122.656
same,IL-6 Measurements Mean,"IL-6; Donor 3, Conc. 40 X",−140.851
same,LPS-induced IL-6 secretion,IL-6; Donor 1,significantly reduced
same,LPS-induced IL-6 secretion,IL-6; Donor 2,significantly reduced
same,LPS-induced IL-6 secretion,IL-6; Donor 3,significantly reduced
same,TNFa Measurements Mean,"TNFα; Donor 1, Conc. 0 X (baseline)",0
same,TNFa Measurements Mean,"TNFα; Donor 1, Conc. 5 X",−326.24
same,TNFa Measurements Mean,"TNFα; Donor 1, Conc. 10 X",−446.88
same,TNFa Measurements Mean,"TNFα; Donor 1, Conc. 20 X",−561.33
same,TNFa Measurements Mean,"TNFα; Donor 1, Conc. 40 X",−644.49
same,Donor 2 TNFa Measurements Mean,"TNFα; Donor 2, Conc. 0 X (baseline)",9.47E−15
same,Donor 2 TNFa Measurements Mean,"TNFα; Donor 2, Conc. 5 X",−54.1596
same,Donor 2 TNFa Measurements Mean,"TNFα; Donor 2, Conc. 10 X",−70.8382
same,Donor 2 TNFa Measurements Mean,"TNFα; Donor 2, Conc. 20 X",−88.6528
same,Donor 2 TNFa Measurements Mean,"TNFα; Donor 2, Conc. 40 X",−103.984
same,Donor 3 TNFa Measurements Mean,"TNFα; Donor 3, Conc. 0 X (baseline)",4.74E−15
same,Donor 3 TNFa Measurements Mean,"TNFα; Donor 3, Conc. 5 X",−33.6246
same,Donor 3 TNFa Measurements Mean,"TNFα; Donor 3, Conc. 10 X",−41.7266
same,Donor 3 TNFa Measurements Mean,"TNFα; Donor 3, Conc. 20 X",−48.4373
same,Donor 3 TNFa Measurements Mean,"TNFα; Donor 3, Conc. 40 X",−55.3093
same,LPS-induced TNFα secretion,TNFα; Donor 1,significantly reduced
same,LPS-induced TNFα secretion,TNFα; Donor 2,significantly reduced
same,LPS-induced TNFα secretion,TNFα; Donor 3,significantly reduced
"CC[C@H](C)[C@H](N)C(=O)O [Isoleucine, L-Isoleucine]",Fold Change MCP1 Secretion Normalized Per Cell,"MCP-1; donor 3, Conc. 66 μM (plasma background, reference)",1.0000
same,Fold Change MCP1 Secretion Normalized Per Cell,"MCP-1; donor 3, Conc. 1328 μM",1.5550
same,Fold Change MCP1 Secretion Normalized Per Cell,"MCP-1; donor 3, Conc. 3320 μM",1.2169
same,Fold Change MCP1 Secretion Normalized Per Cell,"MCP-1; donor 3, Conc. 6639 μM",1.2084
same,Fold Change MCP1 Secretion Normalized Per Cell,"MCP-1; donor 4, Conc. 66 μM (plasma background, reference)",1.0000
same,IL-6 Measurements Mean,IL-6; [1],0
same,IL-6 Measurements Mean,"IL-6; Donor 1, Conc. 1328 μM",25.98
same,IL-6 Measurements Mean,"IL-6; Donor 1, Conc. 3320 μM",−15.8843
same,IL-6 Measurements Mean,"IL-6; Donor 1, Conc. 6639 μM",−218.332
same,IL-6 Measurements Mean,IL-6; [2],0
same,IL-6 Measurements Mean,"IL-6; Donor 2, Conc. 1328 μM",−2.318
same,IL-6 Measurements Mean,"IL-6; Donor 2, Conc. 3320 μM",2.305
same,IL-6 Measurements Mean,"IL-6; Donor 2, Conc. 6639 μM",−1.774
same,IL-6 Measurements Mean,"IL-6; Donor 3, Conc. 66 μM",−6.69
same,IL-6 Measurements Mean,"IL-6; Donor 3, Conc. 1328 μM",−28.9897
same,IL-6 Measurements Mean,"IL-6; Donor 3, Conc. 3320 μM",0
same,IL-6 Measurements Mean,"IL-6; Donor 3, Conc. 6639 μM",−16.3663
same,TNFa Measurements Mean,TNFα; [1],0
same,TNFa Measurements Mean,"TNFα; Donor 1, Conc. 1328 μM",−42.68
same,TNFa Measurements Mean,"TNFα; Donor 1, Conc. 3320 μM",−96.3
same,TNFa Measurements Mean,"TNFα; Donor 1, Conc. 6639 μM",−40.95
same,Donor 2 TNFa Measurements Mean,TNFα; [2],4.74E−15
same,Donor 2 TNFa Measurements Mean,"TNFα; Donor 2, Conc. 1328 μM",2.919
same,Donor 2 TNFa Measurements Mean,"TNFα; Donor 2, Conc. 3320 μM",10.26
same,Donor 2 TNFa Measurements Mean,"TNFα; Donor 2, Conc. 6639 μM",19.26
same,Donor 3 TNFa Measurements Mean,"TNFα; Donor 3, Conc. 66 μM (baseline)",−2.4E−15
same,Donor 3 TNFa Measurements Mean,"TNFα; Donor 3, Conc. 1328 μM",−6.23
same,Donor 3 TNFa Measurements Mean,"TNFα; Donor 3, Conc. 3320 μM",3.309
same,Donor 3 TNFa Measurements Mean,"TNFα; Donor 3, Conc. 6639 μM",−1.66
same,LPS-induced TNFα secretion,TNFα; Donor 2,increased
